Experimental data: PMC5218480 (PLoS ONE, 2017)

System: MV-4-11 cells
Assay: Gene expression microarray analysis (Affymetrix PrimeView) and GSEA
Type: cell-based, human
Set-up: RFU PODN (11730768_x_at) / Fold change /veh PODN (11730768_x_at) / RFU LINC00158 (11744669_a_at) / Fold change /veh LINC00158 (11744669_a_at) / RFU DUSP10 (11751237_a_at) / Fold change /veh DUSP10 (11751237_a_at) / RFU ID3 (11757404_x_at) / Fold change /veh ID3 (11757404_x_at) / RFU PLEKHG5 (11737974_s_at) / Fold change /veh PLEKHG5 (11737974_s_at) / RFU LRRC4B (11730491_at) / Fold change /veh LRRC4B (11730491_at) / RFU GIMAP4 (11747438_a_at) / Fold change /veh GIMAP4 (11747438_a_at) / RFU KRT8 (11758183_x_at) / Fold change /veh KRT8 (11758183_x_at) / RFU CNN1 (11734310_a_at) / Fold change /veh CNN1 (11734310_a_at) / RFU VPS37D (11726825_at) / Fold change /veh VPS37D (11726825_at) / RFU C10orf10 (11716522_x_at) / Fold change /veh C10orf10 (11716522_x_at) / RFU KIR2DL2 /// KIR2DL4 /// KIR2DL5A /// KIR2DL5B /// KIR2DS1 /// KIR2DS2 /// KIR2DS3 /// KIR2DS4 /// KIR3DL3 /// KIR3DL3 /// KIR3DS1 (11738374_at) / Fold change /veh KIR2DL2 /// KIR2DL4 /// KIR2DL5A /// KIR2DL5B /// KIR2DS1 /// KIR2DS2 /// KIR2DS3 /// KIR2DS4 /// KIR3DL3 /// KIR3DL3 /// KIR3DS1 (11738374_at) / RFU C1QL1 (11718748_at) / Fold change /veh C1QL1 (11718748_at) / RFU TMPRSS4 (11747572_a_at) / Fold change /veh TMPRSS4 (11747572_a_at) / RFU HAMP (11756126_x_at) / Fold change /veh HAMP (11756126_x_at) / RFU RNFT2 (11725882_a_at) / Fold change /veh RNFT2 (11725882_a_at) / RFU NR4A2 (11747474_a_at) / Fold change /veh NR4A2 (11747474_a_at) / RFU ABCC12 (11746883_a_at) / Fold change /veh ABCC12 (11746883_a_at) / RFU TMEM136 (11760407_x_at) / Fold change /veh TMEM136 (11760407_x_at) / RFU CLDN22 /// WWC2 (11732394_at) / Fold change /veh CLDN22 /// WWC2 (11732394_at) / RFU HLA-DPB1 (11760878_x_at) / Fold change /veh HLA-DPB1 (11760878_x_at) / RFU SPINT1 (11716480_a_at) / Fold change /veh SPINT1 (11716480_a_at) / RFU GAP43 (11754022_s_at) / Fold change /veh GAP43 (11754022_s_at) / RFU A4GNT (11735810_at) / Fold change /veh A4GNT (11735810_at) / RFU PRB3 (11715151_x_at) / Fold change /veh PRB3 (11715151_x_at) / RFU TUBB4B (11761932_at) / Fold change /veh TUBB4B (11761932_at) / RFU CAPN14 (11732068_a_at) / Fold change /veh CAPN14 (11732068_a_at) / RFU TMCC2 (11721928_a_at) / Fold change /veh TMCC2 (11721928_a_at) / RFU IRGQ (11745062_a_at) / Fold change /veh IRGQ (11745062_a_at) / RFU FAM174B (11720279_a_at) / Fold change /veh FAM174B (11720279_a_at) / RFU TMPRSS4 (11748680_a_at) / Fold change /veh TMPRSS4 (11748680_a_at) / RFU FAM212B (11763350_a_at) / Fold change /veh FAM212B (11763350_a_at) / RFU PLEKHG5 (11743358_a_at) / Fold change /veh PLEKHG5 (11743358_a_at) / RFU ZSCAN30 (11745921_a_at) / Fold change /veh ZSCAN30 (11745921_a_at) / RFU CMKLR1 (11741424_a_at) / Fold change /veh CMKLR1 (11741424_a_at) / RFU LOC101060620 /// MAPK8IP1 (11723275_at) / Fold change /veh LOC101060620 /// MAPK8IP1 (11723275_at) / RFU SPTSSB (11747773_x_at) / Fold change /veh SPTSSB (11747773_x_at) / RFU PRSS12 (11739890_at) / Fold change /veh PRSS12 (11739890_at) / RFU BIN1 (11741810_x_at) / Fold change /veh BIN1 (11741810_x_at) / RFU WNT11 (11732464_a_at) / Fold change /veh WNT11 (11732464_a_at) / RFU C10orf10 (11716521_a_at) / Fold change /veh C10orf10 (11716521_a_at) / RFU C5orf56 (11738089_at) / Fold change /veh C5orf56 (11738089_at) / RFU CYB561 (11721691_x_at) / Fold change /veh CYB561 (11721691_x_at) / RFU ANKRD19P (11752326_a_at) / Fold change /veh ANKRD19P (11752326_a_at) / RFU OR2T12 /// OR2T33 /// OR2T8 (11738714_s_at) / Fold change /veh OR2T12 /// OR2T33 /// OR2T8 (11738714_s_at) / RFU VCAN (11748164_a_at) / Fold change /veh VCAN (11748164_a_at) / RFU JSRP1 (11732532_at) / Fold change /veh JSRP1 (11732532_at) / RFU KRTAP10-11 (11738290_x_at) / Fold change /veh KRTAP10-11 (11738290_x_at) / RFU MYO3A (11730013_a_at) / Fold change /veh MYO3A (11730013_a_at) / RFU EBF3 (11725865_a_at) / Fold change /veh EBF3 (11725865_a_at) / RFU CAMK2N1 (11719241_x_at) / Fold change /veh CAMK2N1 (11719241_x_at) / RFU C5orf56 (11738088_a_at) / Fold change /veh C5orf56 (11738088_a_at) / RFU OLFML3 (11715873_a_at) / Fold change /veh OLFML3 (11715873_a_at) / RFU LOC100653217 /// NTM (11731650_a_at) / Fold change /veh LOC100653217 /// NTM (11731650_a_at) / RFU MAPK11 (11762145_a_at) / Fold change /veh MAPK11 (11762145_a_at) / RFU FIZ1 (11724087_x_at) / Fold change /veh FIZ1 (11724087_x_at) / RFU OASL (11726364_x_at) / Fold change /veh OASL (11726364_x_at) / RFU SOX15 (11748057_x_at) / Fold change /veh SOX15 (11748057_x_at) / RFU CD79A (11719716_a_at) / Fold change /veh CD79A (11719716_a_at) / RFU HIST1H1D (11736915_at) / Fold change /veh HIST1H1D (11736915_at) / RFU CASKIN2 (11723855_a_at) / Fold change /veh CASKIN2 (11723855_a_at) / RFU LOC730098 (11760151_x_at) / Fold change /veh LOC730098 (11760151_x_at) / RFU OR4N2 (11742367_at) / Fold change /veh OR4N2 (11742367_at) / RFU PRRT2 (11749266_a_at) / Fold change /veh PRRT2 (11749266_a_at) / RFU SNX32 (11753110_a_at) / Fold change /veh SNX32 (11753110_a_at) / RFU CDHR5 (11726645_a_at) / Fold change /veh CDHR5 (11726645_a_at) / RFU RCAN1 (11760418_a_at) / Fold change /veh RCAN1 (11760418_a_at) / RFU FAM167A (11723789_a_at) / Fold change /veh FAM167A (11723789_a_at) / RFU FAM26E (11764081_at) / Fold change /veh FAM26E (11764081_at) / RFU ISYNA1 (11749810_s_at) / Fold change /veh ISYNA1 (11749810_s_at) / RFU ACY1 (11761880_at) / Fold change /veh ACY1 (11761880_at) / RFU 11764098_at / Fold change /veh 11764098_at / RFU SAMD14 (11745864_x_at) / Fold change /veh SAMD14 (11745864_x_at) / RFU NPB (11741838_a_at) / Fold change /veh NPB (11741838_a_at) / RFU TMPRSS6 (11731388_a_at) / Fold change /veh TMPRSS6 (11731388_a_at) / RFU KRTAP10-2 (11738614_at) / Fold change /veh KRTAP10-2 (11738614_at) / RFU ARHGAP8 /// PRR5-ARHGAP8 (11727945_x_at) / Fold change /veh ARHGAP8 /// PRR5-ARHGAP8 (11727945_x_at) / RFU KRTAP5-7 /// NADSYN1 (11734609_at) / Fold change /veh KRTAP5-7 /// NADSYN1 (11734609_at) / RFU RASL12 (11751679_a_at) / Fold change /veh RASL12 (11751679_a_at) / RFU CDKN2B (11736163_a_at) / Fold change /veh CDKN2B (11736163_a_at) / RFU PRF1 (11729649_at) / Fold change /veh PRF1 (11729649_at) / RFU, ZNF638 /// ZNF638-IT1 / Fold change vs veh, ZNF638 /// ZNF638-IT1 / RFU, PANK3 / Fold change vs veh, PANK3 / RFU, SH3YL1 / Fold change vs veh, SH3YL1 / RFU, ZEB2 / Fold change vs veh, ZEB2 / RFU, NRIP1 / Fold change vs veh, NRIP1 / RFU, PTTG1IP / Fold change vs veh, PTTG1IP / RFU, CAPN2 / Fold change vs veh, CAPN2 / RFU, MED14 / Fold change vs veh, MED14 / RFU, SNORA58 / Fold change vs veh, SNORA58 / RFU, C1orf63 / Fold change vs veh, C1orf63 / RFU, LRRFIP1 / Fold change vs veh, LRRFIP1 / RFU, NDUFAF7 / Fold change vs veh, NDUFAF7 / RFU, SLC12A2 / Fold change vs veh, SLC12A2 / RFU, IBTK / Fold change vs veh, IBTK / RFU, ESF1 / Fold change vs veh, ESF1 / Fold change vs veh, TMEM50B / RFU, TAOK1 / Fold change vs veh, TAOK1 / RFU, ACBD3 / Fold change vs veh, ACBD3 / RFU, TMA16 / Fold change vs veh, TMA16 / RFU, RWDD3 / Fold change vs veh, RWDD3 / RFU, BCAT1 / Fold change vs veh, BCAT1 / RFU, EDEM3 / Fold change vs veh, EDEM3 / RFU, TMEM33 / Fold change vs veh, TMEM33 / RFU, WDR75 / Fold change vs veh, WDR75 / RFU, AHCTF1 / Fold change vs veh, AHCTF1 / RFU, TFRC / Fold change vs veh, TFRC / RFU, ZDHHC17 / Fold change vs veh, ZDHHC17 / RFU, NOM1 / Fold change vs veh, NOM1 / RFU, ARL8B / Fold change vs veh, ARL8B / RFU, ZBTB11 / Fold change vs veh, ZBTB11 / RFU, TAMM41 / Fold change vs veh, TAMM41 / RFU, KIAA1704 /// LOC100996395 / Fold change vs veh, KIAA1704 /// LOC100996395 / RFU, ING1 / Fold change vs veh, ING1 / RFU, TRMT61B / Fold change vs veh, TRMT61B / RFU, FUBP3 / Fold change vs veh, FUBP3 / RFU, TP53 / Fold change vs veh, TP53 / RFU, TNKS2 / Fold change vs veh, TNKS2 / RFU, ZFP14 / Fold change vs veh, ZFP14 / RFU, ACTR2 / Fold change vs veh, ACTR2 / RFU, PPP3R1 / Fold change vs veh, PPP3R1 / RFU, PIK3R1 / Fold change vs veh, PIK3R1 / RFU, HNRNPA1 / Fold change vs veh, HNRNPA1 / RFU, RNF170 / Fold change vs veh, RNF170 / RFU, ZNF28 / Fold change vs veh, ZNF28 / RFU, RNGTT / Fold change vs veh, RNGTT / RFU, OGT / Fold change vs veh, OGT / RFU, BRD1 / Fold change vs veh, BRD1 / RFU, MARS / Fold change vs veh, MARS / RFU, ZNF655 / Fold change vs veh, ZNF655 / RFU, FAHD1 / Fold change vs veh, FAHD1 / RFU, BDP1 / Fold change vs veh, BDP1 / RFU, LRRCC1 / Fold change vs veh, LRRCC1 / RFU, ARID1A / Fold change vs veh, ARID1A / RFU, ZNF146 / Fold change vs veh, ZNF146 / RFU, ZNF330 / Fold change vs veh, ZNF330 / RFU, GPN3 / Fold change vs veh, GPN3 / RFU, C9orf123 / Fold change vs veh, C9orf123 / RFU, N4BP2L2 / Fold change vs veh, N4BP2L2 / RFU, ARFIP1 / Fold change vs veh, ARFIP1 / RFU, FAM179B / Fold change vs veh, FAM179B / RFU, BCL10 / Fold change vs veh, BCL10 / RFU, UHRF1BP1L / Fold change vs veh, UHRF1BP1L / RFU, BET1 / Fold change vs veh, BET1 / RFU, CNOT2 / Fold change vs veh, CNOT2 / RFU, ZNF268 / Fold change vs veh, ZNF268 / Fold change vs veh, ZNF507 / RFU, DGCR2 / Fold change vs veh, DGCR2 / RFU, WDSUB1 / Fold change vs veh, WDSUB1 / Fold change vs veh, HSP90B1 /// MIR3652 / RFU, ADSS / Fold change vs veh, ADSS / RFU, GK / Fold change vs veh, GK / RFU, ZNF148 / Fold change vs veh, ZNF148 / RFU, TAF9 / Fold change vs veh, TAF9 / RFU, SLC1A5 / Fold change vs veh, SLC1A5 / RFU, SLMO2 / Fold change vs veh, SLMO2 / RFU, ABCC4 / Fold change vs veh, ABCC4 / RFU, LOC101060439 /// RAP1B / Fold change vs veh, LOC101060439 /// RAP1B / RFU, RFX7 / Fold change vs veh, RFX7 / RFU, GTPBP10 / Fold change vs veh, GTPBP10 / RFU, CNEP1R1 / Fold change vs veh, CNEP1R1 / RFU, BIVM-ERCC5 /// ERCC5 / Fold change vs veh, BIVM-ERCC5 /// ERCC5 / RFU, ILF3 / Fold change vs veh, ILF3 / RFU 11762660_at / Fold change /veh 11762660_at / RFU VCAN (11757783_s_at) / Fold change /veh VCAN (11757783_s_at) / RFU DDX43 (11728927_at) / Fold change /veh DDX43 (11728927_at) / RFU KRT8 (11758188_x_at) / Fold change /veh KRT8 (11758188_x_at) / RFU NKD1 (11759106_at) / Fold change /veh NKD1 (11759106_at) / RFU SRD5A1 (11742802_a_at) / Fold change /veh SRD5A1 (11742802_a_at) / RFU TPSAB1 /// TPSB2 (11721975_s_at) / Fold change /veh TPSAB1 /// TPSB2 (11721975_s_at) / RFU GSTM3 (11746129_a_at) / Fold change /veh GSTM3 (11746129_a_at) / RFU IL23R (11737362_x_at) / Fold change /veh IL23R (11737362_x_at) / RFU TMEM51 (11727254_a_at) / Fold change /veh TMEM51 (11727254_a_at) / RFU PIWIL2 (11732686_x_at) / Fold change /veh PIWIL2 (11732686_x_at) / RFU ORM1 (11744905_x_at) / Fold change /veh ORM1 (11744905_x_at) / RFU CCDC152 (11743942_at) / Fold change /veh CCDC152 (11743942_at) / RFU ECM1 (11717891_a_at) / Fold change /veh ECM1 (11717891_a_at) / RFU IL23R (11748794_a_at) / Fold change /veh IL23R (11748794_a_at) / RFU TNFAIP8L3 (11732012_x_at) / Fold change /veh TNFAIP8L3 (11732012_x_at) / RFU MBOAT4 (11741988_at) / Fold change /veh MBOAT4 (11741988_at) / RFU 11764193_at / Fold change /veh 11764193_at / RFU TMEM53 (11763286_at) / Fold change /veh TMEM53 (11763286_at) / RFU MAGEB2 (11727129_at) / Fold change /veh MAGEB2 (11727129_at) / RFU TMEM200A (11744735_a_at) / Fold change /veh TMEM200A (11744735_a_at) / RFU CCDC152 (11751479_a_at) / Fold change /veh CCDC152 (11751479_a_at) / RFU FAM211A (11726209_a_at) / Fold change /veh FAM211A (11726209_a_at) / RFU RGS16 (11746705_a_at) / Fold change /veh RGS16 (11746705_a_at) / RFU VCAN (11755009_s_at) / Fold change /veh VCAN (11755009_s_at) / RFU RHOB (11743442_s_at) / Fold change /veh RHOB (11743442_s_at) / RFU RGS16 (11720943_a_at) / Fold change /veh RGS16 (11720943_a_at) / RFU RGS16 (11720944_at) / Fold change /veh RGS16 (11720944_at) / RFU, VPS4B / Fold change vs veh, VPS4B / RFU, CREB1 / Fold change vs veh, CREB1 / RFU, DNAJC13 / Fold change vs veh, DNAJC13 / RFU, GNAQ / Fold change vs veh, GNAQ / RFU, CDK5R1 / Fold change vs veh, CDK5R1 / RFU, ZRANB3 / Fold change vs veh, ZRANB3 / RFU, CUL4A / Fold change vs veh, CUL4A / RFU, CCNY / Fold change vs veh, CCNY / RFU, UFL1 / Fold change vs veh, UFL1 / RFU, COG3 / Fold change vs veh, COG3 / RFU, DIAPH2 / Fold change vs veh, DIAPH2 / RFU, SKA2 / Fold change vs veh, SKA2 / RFU, AFF3 / Fold change vs veh, AFF3 / RFU, LMF1 / Fold change vs veh, LMF1 / RFU, IPO11 / Fold change vs veh, IPO11 / RFU, DFFB / Fold change vs veh, DFFB / RFU, FOXP1 / Fold change vs veh, FOXP1 / RFU, CARD8 / Fold change vs veh, CARD8 / RFU, STRN3 / Fold change vs veh, STRN3 / RFU, ADK / Fold change vs veh, ADK / RFU, RASSF2 / Fold change vs veh, RASSF2 / RFU, WIPF1 / Fold change vs veh, WIPF1 / RFU, LARP1B / Fold change vs veh, LARP1B / RFU, RASA1 / Fold change vs veh, RASA1 / RFU, RB1 / Fold change vs veh, RB1 / RFU, PPFIA1 / Fold change vs veh, PPFIA1 / RFU, MAT2A / Fold change vs veh, MAT2A / RFU, CCT5 / Fold change vs veh, CCT5 / RFU, WDR92 / Fold change vs veh, WDR92 / RFU, CUX1 / Fold change vs veh, CUX1 / RFU, TTC7A / Fold change vs veh, TTC7A / RFU, TMEM135 / Fold change vs veh, TMEM135 / RFU, DEPTOR / Fold change vs veh, DEPTOR / RFU, CPM / Fold change vs veh, CPM / RFU, DNAJB6 / Fold change vs veh, DNAJB6 / RFU, CACNA2D3 / Fold change vs veh, CACNA2D3 / RFU, DTX4 / Fold change vs veh, DTX4 / RFU, TFCP2 / Fold change vs veh, TFCP2 / RFU, GMCL1 /// GMCL1P1 / Fold change vs veh, GMCL1 /// GMCL1P1 / RFU, AEBP2 / Fold change vs veh, AEBP2 / RFU, SNHG1 /// SNORD22 /// SNORD25 /// SNORD26 /// SNORD27 /// SNORD28 /// SNORD29 /// SNORD31 / Fold change vs veh, SNHG1 /// SNORD22 /// SNORD25 /// SNORD26 /// SNORD27 /// SNORD28 /// SNORD29 /// SNORD31 / Fold change (Aza/veh), C12orf56 (ProbeSet 11735607_a_at) / Fold change (ACY-1035/veh), C12orf56 (ProbeSet 11735607_a_at) / Fold change (Aza/veh), FGFR1OP (ProbeSet 11751329_s_at) / Fold change (ACY-1035/veh), FGFR1OP (ProbeSet 11751329_s_at) / Fold change (Aza/veh), VPS36 (ProbeSet 11739960_a_at) / Fold change (ACY-1035/veh), VPS36 (ProbeSet 11739960_a_at) / RFU SYPL1 (11715823_x_at) / Fold change /veh SYPL1 (11715823_x_at) / RFU IGFBP7 (11715501_s_at) / Fold change /veh IGFBP7 (11715501_s_at) / RFU REEP3 (11722064_at) / Fold change /veh REEP3 (11722064_at) / RFU IGLL1 (11728026_x_at) / Fold change /veh IGLL1 (11728026_x_at): dose or concentration left out as unconfirmed
Conditions: MV-4-11 cells, 48 hours

Structure (SMILES): Nc1ccc(-c2cccs2)cc1NC(=O)c1ccc2c(c1)cc(C1CC1)n2CCN1CCOCC1 [ACY-1035]
- RFU FAM212B (11763350_a_at): 31.32 RFU
